Results from ChEMBL document CHEMBL1151540, “1-Naphthylmethylphosphonic acid derivatives as osteoclastic acid phosphatase inhibitors” (Bioorg Med Chem Lett, 1995).

Assays:
[1] = biological target: Tartrate-resistant acid phosphatase type 5 (Homo sapiens) (UniProt P13686); assay: Tested for inhibition of human Osteoclastic acid phosphatase (OAP), purified from the spleen of a patient with hairy cell leukemia at 100 uM
Mus musculus [2] = species: Mus musculus; assay: Compound was tested for the percentage inhibition of PTH stimulated bone resorption in neonatal mouse calvaria placed in culture, at 500 uM concentration; type: functional
Mus musculus [3] = species: Mus musculus; assay: Compound was tested for the percentage inhibition of PTH stimulated bone resorption in neonatal mouse calvaria placed in culture, at 100 uM concentration; type: functional
Mus musculus [4] = species: Mus musculus; assay: Compound was tested for thymidine incorporation at 500 uM concentration using [H3 thymidine] as radioligand; type: functional
Mus musculus [5] = species: Mus musculus; assay: Tested for percentage inhibition of PTH stimulated bone resorption in neonatal mouse calvaria placed in culture, at 10 uM concentration; type: functional
Mus musculus [6] = species: Mus musculus; assay: Compound was tested for thymidine incorporation at 10 uM concentration; type: functional
Mus musculus [7] = species: Mus musculus; assay: Tested for percentage inhibition of PTH stimulated bone resorption in neonatal mouse calvaria placed in culture, at 1 uM concentration; type: functional
Mus musculus [8] = species: Mus musculus; assay: Compound was evaluated for thymidine incorporation at 10 uM concentration using [H3 thymidine] as radioligand; type: functional
Mus musculus [9] = species: Mus musculus; assay: Tested for percentage inhibition of PTH stimulated bone resorption in neonatal mouse calvaria placed in culture, at 100 uM concentration; type: functional
Mus musculus [10] = species: Mus musculus; assay: Compound was evaluated for thymidine incorporation at 100 uM concentration using [H3 thymidine] as radioligand; type: functional
Mus musculus [11] = species: Mus musculus; assay: Compound was evaluated for thymidine incorporation at 1 uM concentration using [H3 thymidine] as radioligand; type: functional

Chain of Tartrate-resistant acid phosphatase type 5 (Homo sapiens) (P13686 whole entry, looked up): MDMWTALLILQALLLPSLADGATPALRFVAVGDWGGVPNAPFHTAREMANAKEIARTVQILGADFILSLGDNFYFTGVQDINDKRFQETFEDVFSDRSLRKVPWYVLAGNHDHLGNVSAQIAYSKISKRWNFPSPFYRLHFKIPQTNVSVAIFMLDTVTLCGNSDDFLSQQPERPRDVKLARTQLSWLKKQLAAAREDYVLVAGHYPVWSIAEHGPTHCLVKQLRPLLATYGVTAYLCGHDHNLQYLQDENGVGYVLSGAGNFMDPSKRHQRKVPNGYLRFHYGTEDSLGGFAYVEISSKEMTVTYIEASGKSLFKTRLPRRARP

Row | Molecule | inhibition [1] [%] | also measured
1 | Cc1ccc2ccccc2c1CP(=O)(O)O | 20 | 
2 | O=P(O)(O)C(O)c1cccc2ccccc12 (centres undefined) | 10 | 
3 | O=C(c1ccccc1)C(C(=O)c1ccccc1)(c1cccc2ccccc12)P(=O)(O)O | 96 | 
4 | O=[N+]([O-])c1ccc(CC(c2cccc3ccccc23)P(=O)(O)O)cc1 (centres undefined) | 80 | 
5 | O=P(O)(O)C(CC1CCCCC1)c1cccc2ccccc12 (centres undefined) | 73 | 
6 | O=P(O)(O)Cc1ccccc1 | 0 | 
7 | O=P(O)(O)Cc1ccc2ccccc2c1 | 4 | 
8 | O=P(O)(O)C(Cc1ccc(Cl)cc1)c1cccc2ccccc12 (centres undefined) | 94 | Inhibition (Mus musculus [2]): 101.8%; Inhibition (Mus musculus [3]): 31.9%; Control (Mus musculus [4]): 76%
9 | O=P(O)(O)C(Cc1ccccc1)c1cccc2ccccc12 (centres undefined) | 92 | 
10 | O=P(O)(O)C(Cc1ccc(Cl)cc1)(Cc1ccc(Cl)cc1)c1cccc2ccccc12 | 87 | 
11 | Cc1ccc2ccccc2c1C(CC1CCCCC1)P(=O)(O)O (centres undefined) | 90 | 
12 | O=C(c1ccc2ccccc2c1)C(c1cccc2ccccc12)P(=O)(O)O (centres undefined) | 95 | 
13 | O=P(O)(O)C(Cc1ccc(-c2ccccc2)cc1)c1cccc2ccccc12 (centres undefined) | 100 | 
14 | COc1ccc(CC(c2cccc3ccccc23)P(=O)(O)O)cc1 (centres undefined) | 73 | 
15 | O=P(O)(O)C(Cc1ccccc1)c1ccc2ccccc2c1 (centres undefined) | 19 | 
16 | O=P(O)(O)C(Cl)(Cl)P(=O)(O)O [CLODRONIC ACID] |  | Inhibition (Mus musculus [5]): 95.6%; Control (Mus musculus [6]): 104%
17 | Cc1ccc(CC(c2cccc3ccccc23)P(=O)(O)O)cc1 (centres undefined) | 75 | 
18 | O=P(O)(O)Cc1cccc2ccccc12 | 64 | 
19 | O=P(O)(O)C(Cc1ccccc1)c1ccccc1 (centres undefined) | 15 | 
20 | ORTHOVANADATE |  | inhibition (Mus musculus [7]): 31.3%; Control (Mus musculus [8]): 94%; inhibition (Mus musculus [5]): 72.7%; inhibition (Mus musculus [9]): 130%; Control (Mus musculus [10]): 0.4%; Control (Mus musculus [11]): 127%
